Key:
[1] = system: Enterococcus faecium MDR Van A ATCC 51559; test: MIC assay, E. faecium MDR Van A ATCC 51559; type: cell-based; details: 24 h incubation, visual reading
In short: (§1)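 Twofold broth microdilution in Mueller Hinton broth; compounds tested from 8 μg/ml to 0.003 μg/ml. Mid-log cultures were inoculated at 5×10e5 CFU/mL and incubated 24 h at 37° C. MIC was the lowest concentration with no visible growth.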

MRSA (Strain ATCC 43300) = test: Murine thigh infection model (MRSA); type: in vivo, Staphylococcus aureus; details: neutropenic CD1 mice
Description: Summary: Adult (8 week old) female CD1 mice were made neutropenic by two injections of cyclophosphamide 4 days and 1 day prior to infection. An inoculum of 10^5 cfu MRSA (Strain ATCC 43300) was injected intramuscularly into both left and right thighs of all mice. […] After an additional two hours, a 50 μL sample of blood was obtained from the tail bleed to analyse for presence of antibiotic compound. […] Thighs were then removed, weighed and homogenised in a fixed volume of saline. The homogenate solution was filtered, diluted and seeded onto agar plates, which were incubated overnight at 37° C. Colony counts were used to establish the cfu in the thigh homogenates, the cfu/thigh, and the cfu/g of thigh.
Compound preparation: Cyclophosphamide monohydrate (Sigma) was dissolved in sterile saline to a concentration of 30 mg/mL. Likewise, vancomycin (Sigma) and MCC compounds were also dissolved in sterile saline to a final concentration of 60 mg/mL and 18.5 mg/mL respectively. All compounds were prepared in low binding Eppendorf tubes and kept at −20° C. until used.
In vivo experimental assay: Eight week old female outbred CD1 mice (UQBR-AIBN) were rendered neutropenic by injecting two doses of cyclophosphamide intraperitoneally 4 days (150 mg/kg) and 1 day (100 mg/kg) prior to experimental infection. The infection model using MRSA was established by intramuscular injection of 50 μL of early-log-phase bacterial MRSA suspension (around 2×10^6 cfu/mL) in saline into both thigh muscles. […] Untreated animals received equivalent volume of saline (Baxter). The mice were monitored for signs of normal behaviour (i.e. grooming, eating, drinking, sleeping, and alertness) during and following dosing. Two hours after saline/antibiotic treatment, 0.05 mL of blood was collected by tail incision. 24 hours after MRSA infection, mice were euthanized and blood collected from the heart by cardiac puncture (saline group) or by tail incision (Vancomycin and MCC compound treated groups) as outlined in FIG. 1. For each mouse, both thighs were collected aseptically by cutting the leg at the hip and knee, placed in 10 mL of cold sterile saline and the individual weight of each thigh recorded.
Preparation of injectable MRSA solution: An MRSA subculture bacterial isolate (ATCC43300) was taken from the storage at −80° C. and freshly seeded on agar plates for overnight (O/N) growth. From the O/N culture preparation, a single colony was diluted into 10-12 mL of Mueller Hinton broth (MHB) and incubated O/N at 37° C. A log-phase subculture was obtained by adding 100 μL of O/N subculture in 10 mL MHB and incubated for a further 2-3 hours. Finally, the OD600 value of the bacterial suspension was determined and the colony forming units per millilitre (cfu/mL) extrapolated. A full dilution of the bacterial cell suspension in saline was achieved by washing (3220×g for 10 min) and the OD600 in saline determined. The suspension was then diluted out accordingly in order to achieve a 2×10^6 cfu/mL solution (10^5 cfu in 50 μL/thigh).
Thus, 10 μL of the injectable MRSA suspension was diluted down to 10-1000 fold, each dilution plated out onto agar plates and incubated at 37° C. for 24 hours.
Thigh homogenates and CFU determination: Thighs were homogenized at 20,000 rpm for 15 seconds using a Polytron MR2500E using a […] probe (all Kinematica).

[2] = system: Staphylococcus aureus MRSA ATCC 43300; test: MIC assay, S. aureus MRSA ATCC 43300; type: cell-based; details: 24 h incubation, visual reading
In short: as §1

[3] = system: Streptococcus pneumoniae MDR ATCC 700677; test: MIC assay, S. pneumoniae MDR ATCC 700677; type: cell-based; details: 24 h incubation, visual reading
In short: as §1

[4] = single subcutaneous dose 10 mg/kg

SMILES	Minimum Inhibitory Concentration (MIC) E. faecium ATCC51559 [1]	Average Reduction log Δcfu MRSA/thigh after 26 h (MRSA (Strain ATCC 43300); [4])	Minimum Inhibitory Concentration (MIC) Staph. aureus ATCC43300 [2]	Minimum Inhibitory Concentration (MIC) S. pneumoniae ATCC 700677 [3]	Average Reduction log Δcfu MRSA/thigh after 26 h (MRSA (Strain ATCC 43300); single subcutaneous dose 50 mg/kg)
CCCCCCCCCC(=O)N[C@@H](CCCCN)C(=O)NCCCNC(=O)[C@H]1NC(=O)[C@H]2NC(=O)[C@H](NC(=O)[C@@H]3NC(=O)[C@H](CC(N)=O)NC(=O)[C@H](NC(=O)[C@@H](CC(C)C)NC)[C@H](O)c4ccc(c(Cl)c4)Oc4cc3cc(c4O[C@@H]3O[C@H](CO)[C@@H](O)[C@H](O)[C@H]3O[C@H]3C[C@](C)(N)[C@H](O)[C@H](C)O3)Oc3ccc(cc3Cl)[C@H]2O)c2ccc(O)c(c2)-c2c(O)cc(O)cc21 [MCC_005200]	xx (xx = 1-4)	xx (xx = 2-4)	xxxx (xxxx = 0.01-<0.1)	xxxx (xxxx = 0.01-<0.1)	–
CCCCCCCCC(=O)NC(CCCCN(C)C)C(=O)NCCCNC(=O)C1NC(=O)C2NC(=O)C(NC(=O)C3NC(=O)C(CC(N)=O)NC(=O)C(NC(=O)C(CC(C)C)NC)C(O)c4ccc(c(Cl)c4)Oc4cc3cc(c4OC3OC(CO)C(O)C(O)C3OC3CC(C)(N)C(O)C(C)O3)Oc3ccc(cc3Cl)C2O)c2ccc(O)c(c2)-c2c(O)cc(O)cc21 (stereo not drawn) [MCC_007338]	x (x = >4)	xx (xx = 2-4)	xxx (xxx = 0.1-<1)	xxx (xxx = 0.1-<1)	–
CCCCCCCCCCCC(=O)N[C@@H](CCCCN)C(=O)N[C@@H](CCCCN)C(=O)N[C@@H](CCCCNC(=O)[C@H]1NC(=O)[C@H]2NC(=O)[C@H](NC(=O)[C@@H]3NC(=O)[C@H](CC(N)=O)NC(=O)[C@H](NC(=O)[C@@H](CC(C)C)NC)[C@H](O)c4ccc(c(Cl)c4)Oc4cc3cc(c4O[C@@H]3O[C@H](CO)[C@@H](O)[C@H](O)[C@H]3O[C@H]3C[C@](C)(N)[C@H](O)[C@H](C)O3)Oc3ccc(cc3Cl)[C@H]2O)c2ccc(O)c(c2)-c2c(O)cc(O)cc21)C(=O)O [MCC_000347]	xx (xx = 1-4)	xxxx (xxxx = >6)	xxxxx (xxxxx = <0.01)	xxxx (xxxx = 0.01-<0.1)	–
CNC(CC(C)C)C(=O)NC1C(=O)NC(CC(N)=O)C(=O)NC2C(=O)NC3C(=O)NC(C(=O)NC(C(=O)NCCCNC(=O)C(CCCCN)NC(=O)C(CCCCN)NC(=O)c4ccc(Cl)cc4)c4cc(O)cc(O)c4-c4cc3ccc4O)C(O)c3ccc(c(Cl)c3)Oc3cc2cc(c3OC2OC(CO)C(O)C(O)C2OC2CC(C)(N)C(O)C(C)O2)Oc2ccc(cc2Cl)C1O (stereo not drawn) [MCC_005362]	xx (xx = 1-4)	x (x = 0-2)	xxx (xxx = 0.1-<1)	xxx (xxx = 0.1-<1)	xxx (xxx = 4-6)
CCCCCCCCC(=O)N[C@@H](CCCCN)C(=O)N[C@@H](CCCCN)C(=O)NCCNC(=O)[C@H]1NC(=O)[C@H]2NC(=O)[C@H](NC(=O)[C@@H]3NC(=O)[C@H](CC(N)=O)NC(=O)[C@H](NC(=O)[C@@H](CC(C)C)NC)[C@H](O)c4ccc(c(Cl)c4)Oc4cc3cc(c4O[C@@H]3O[C@H](CO)[C@@H](O)[C@H](O)[C@H]3O[C@H]3C[C@](C)(N)[C@H](O)[C@H](C)O3)Oc3ccc(cc3Cl)[C@H]2O)c2ccc(O)c(c2)-c2c(O)cc(O)cc21 [MCC_005165]	x (x = >4)	xxx (xxx = 4-6)	xxxx (xxxx = 0.01-<0.1)	xxxx (xxxx = 0.01-<0.1)	–

Reference: patent publication US10947271B2, “Antibacterial agents” (THE UNIVERSITY OF QUEENSLAND, priority 2014, dated 2021)
